Assay: xn = mol fraction of the nth substance listed
Conditions: for surface tension liquid-gas: Pendant drop shape; for mass density: 101 kPa, Liquid, Vibrating tube method

Cc1cc(C)cc(C)c1 [1,3,5-trimethylbenzene] + CCCCOC(C)=O
Conditions	mass density [kg/m3]	surface tension liquid-gas [mN/m]
298.15 K, x2 = 0	861.04	28.09
298.15 K, x2 = 0.0736	861.9	–
298.15 K, x2 = 0.1009	862.23	27.72
298.15 K, x2 = 0.1521	862.84	–
298.15 K, x2 = 0.2018	863.45	27.34
298.15 K, x2 = 0.2523	864.09	–
298.15 K, x2 = 0.3003	864.7	26.98
298.15 K, x2 = 0.3499	865.36	–
298.15 K, x2 = 0.4005	866.03	26.61
298.15 K, x2 = 0.45	866.72	–
298.15 K, x2 = 0.4996	867.44	26.27
298.15 K, x2 = 0.5446	868.11	–
298.15 K, x2 = 0.5979	868.92	25.93
298.15 K, x2 = 0.6503	869.76	–
298.15 K, x2 = 0.7016	870.59	25.62
298.15 K, x2 = 0.7504	871.44	–
298.15 K, x2 = 0.8005	872.32	25.36
298.15 K, x2 = 0.846	873.17	–
298.15 K, x2 = 0.8981	874.13	25.12
298.15 K, x2 = 0.9333	874.87	–
303.15 K, x2 = 0	856.96	27.67
303.15 K, x2 = 0.1005	858.04	27.29
303.15 K, x2 = 0.1997	859.17	26.9
303.15 K, x2 = 0.3	860.37	26.53
303.15 K, x2 = 0.3996	861.61	26.14
303.15 K, x2 = 0.5007	862.98	25.79
303.15 K, x2 = 0.6007	864.4	25.45
303.15 K, x2 = 0.7001	865.94	25.12
303.15 K, x2 = 0.7971	867.56	24.85
303.15 K, x2 = 0.9009	869.4	24.6
308.15 K, x2 = 0	852.84	27.24
308.15 K, x2 = 0.1002	853.8	26.84
308.15 K, x2 = 0.1986	854.82	26.44
308.15 K, x2 = 0.2997	855.94	26.05
308.15 K, x2 = 0.4003	857.12	25.66
308.15 K, x2 = 0.5007	858.39	25.29
308.15 K, x2 = 0.5997	859.71	24.94
308.15 K, x2 = 0.7005	861.18	24.6
308.15 K, x2 = 0.8	862.75	24.32
308.15 K, x2 = 0.9006	864.44	24.07
313.15 K, x2 = 0	848.74	26.82
313.15 K, x2 = 0.0498	849.12	–
313.15 K, x2 = 0.0997	849.59	26.39
313.15 K, x2 = 0.15	850.08	–
313.15 K, x2 = 0.2012	850.6	25.97
313.15 K, x2 = 0.2502	851.13	–
313.15 K, x2 = 0.2996	851.64	25.57
313.15 K, x2 = 0.3507	852.22	–
313.15 K, x2 = 0.3987	852.78	25.16
313.15 K, x2 = 0.4497	853.39	–
313.15 K, x2 = 0.5008	854	24.79
313.15 K, x2 = 0.5499	854.62	–
313.15 K, x2 = 0.5964	855.24	24.42
313.15 K, x2 = 0.6503	855.99	–
313.15 K, x2 = 0.6995	856.68	24.07
313.15 K, x2 = 0.7499	857.4	–
313.15 K, x2 = 0.7994	858.19	23.79
313.15 K, x2 = 0.8499	858.99	–
313.15 K, x2 = 0.9	859.83	23.54
313.15 K, x2 = 0.9495	860.67	–

— the NIST ThermoML archive (doi:10.1016/j.jct.2006.07.025)
